Experiments:
[1] = test system: wild type zebrafish larvae; assay: PTZ-induced seizure assay in larvae; format: in vivo; conditions: PTZ 15 uM, 4 day post-fertilization wild type larvae
Procedure: To assay small molecule compounds with anti-seizure activity, 4 day post-fertilization wild type zebrafish were placed in 96-well plates (5 larvae per well) and incubated in the test compounds (20 uM) as above, for either 2 or 12 hrs. Subsequently, the larvae were administered pentylenetetrazole (PTZ; 15 uM) and observed for seizure activity (i.e., a change in phenotype). […] This activity persists for approximately 20 minutes and then culminates in a tonic convulsion that abolishes movement and normal posture. Prior to or after onset of the seizure activity, the small molecule test compound was administered to the larvae and the response of the fish assessed visually or by digital recording.
Scoring was based upon whether the test compound was able to inhibit or modify the seizure activity of the larvae.

[2] = test system: meltdown (mlt) mutant larvae; assay: Rescue of the mlt mutant phenotype by compound exposure, read out with fluorescent lipid PED6 in the posterior intestine; format: in vivo, zebrafish (Danio rerio)
Procedure: For testing, the embryos were then cultured in the presence of the test compound(s) overnight or up to 96 hrs at 28.5° C., for example, in 96-well plates. Mutant larvae and mutants reared in the presence of small molecule compounds may be bathed in the fluorescent lipid PED6 or fluorescent microspheres, which outline the digestive tract lumen and can be seen by visual inspection or by a commercially-available fluorescent plate scanner, typically by 96-120 hours post fertilization (hpf). Although signals that regulate regional epithelial differentiation and renewal are poorly understood, in meltdown (mlt), the posterior gut is disorganized and bears an expanded mesenchyme (Briggs, Am. J. Physiol. Regulatory Integrative Comp. Physiol. 282: R3-9 (2002)). Neither fluorescent marker enters the posterior intestine of mlt mutants because the intestinal lumen is obstructed by the massive cysts that form in all mlt mutant larvae.
No effect: A test compound was considered to have no effect if none of the mlt mutant larvae show fluorescent lipid in the posterior intestine.
When no mutants were observed, one possibility was that the test compound produced a complete rescue of the mutant phenotype. The other possibility was that there were never any mutants present in the well. When embryos derived from matings of heterozygous mlt/+ fish are used for these assays, then with 8-10 embryos per test compound, the latter possibility may be calculated to occur with a frequency of 0.01%.
Partial rescue: Partial rescue was considered when mutants or the mutant phenotype was present, but the fluorescent markers were present in the posterior intestine.
In the present assays, mosaic zebrafish were generated in which homozygous mlt/mlt cells have replaced the native germline of wild type fish. 100% of the offspring derived from pair wise matings of such modified zebrafish are homozygous for the mlt mutation. Thus, all of the larvae placed in each well of the 96-well plate are mlt mutants, greatly enhancing the efficiency of each assay. […]

[3] = test system: wild type zebrafish larvae; assay: Wild type larvae exposed to compound, PED6 imaging of intestine contour; format: in vivo, zebrafish (Danio rerio); conditions: 6 dpf wild type larvae, 2 hour exposure to PED6; FIG. 2B
Procedure: FIGS. 2A-2D photographically show lateral fluorescent images of 6 dpf zebrafish larvae following 2 hour exposure to fluorescent lipid PED6.
For rescue experiments, 1-cell stage embryos derived from pair-wise mating of heterozygous mlt carriers were injected with either the MT-mmpa, morpholino alone or in combination with the β4 integrin morpholino. Subsequently, all embryos were injected with either 0.375 or 0.1875 pg of tissue inhibitor of metalloproteinases 2 (TIMP2 inhibitor) (PF021; Oncogene Research Products, now Calbiochem, San Diego, Calif.) at 48 hpf. Alternatively, 2.5 dpf or 3 dpf larvae were incubated in the TGF-β Type I receptor inhibitor SB 431542, 100 μM in embryo media. Morpholino sequences were as identified in Wallace et al., supra, 2005b for smooth muscle myosin heavy chain, β4 integrin, and MT-mmpa.

| SMILES | duration of seizure activity before tonic convulsion [1] | posterior intestinal PED6 fluorescence and intestine contour in mlt larvae ([2]; 6 dpf mlt larvae, 2 hour exposure to PED6, FIG. 2D) | rescue of the mlt mutant phenotype (fluorescent lipid in posterior intestine) ([2]; compound added ~60 hpf, PED6 at 96 hpf, imaged at 120 hpf) | intestinal cysts versus untreated mlt larvae ([2]; mlt larvae scored at 5 dpf, treated at 2.5 dpf or 3 dpf, 100 μM in embryo media) | intestine contour in wild type larvae [3] |
| --- | --- | --- | --- | --- | --- |
| C1CCc2nnnn2CC1 [PTZ, pentylenetetrazole] | approximately 20 minutes | – | – | – | – |
| NC(=O)c1ccc(-c2nc(-c3ccc4c(c3)OCO4)c(-c3ccccn3)[nH]2)cc1 [SB431542] | – | posterior intestinal fluorescence and the contour is normal | rescuing the mutant phenotype | far fewer cysts than untreated mlt larvae | normal intestine contour |
